# Experiments:
# Format in all cases: cell-based
# [1] = tested on: Fusarium graminearum PH-1; conditions: for F. graminearum PH-1 MIC Day1: MIC Day 1, 96-well plate, resazurin cell viability; for MIC, in-vitro antifungal activity against F. graminearum: F. graminearum PH-1, 48 hours
# [2] = tested on: Zymoseptoria tritici IPO323
# Botrytis cinerea T4 = tested on: Botrytis cinerea T4
substance,measurement,setting,value
"PD89.1.2: Crambe maritima wild-type defensin SEQ ID NO: 569 with N-terminal alanine, expressed in Pichia pastoris (KLCRKPSGTWSGLCANSDSCRKQCINLEKAKDGSCKYKFPAHKCFCYY; N-terminal alanine; listed as Crambe maritima)",F. graminearum PH-1 MIC Day1,[1],12 µM
same,Z. tritici IPO323 MIC Day 1,[2],1.5 µM
same,Z. tritici IPO323 MIC Day 7,[2],6 µM
same,Z. tritici IPO323 MIC Day 14,[2],12 µM
same,B. cinerea T4 MIC Day1,Botrytis cinerea T4,2.5 µM
"PD92.1.1: Trifolium pratense wild-type defensin SEQ ID NO: 583 with N-terminal alanine, expressed in Pichia pastoris (RKCESKRRWIYGNCLSDEKCASDCLVKGFLFGKCRGYDNRCYCKKPRC; N-terminal alanine; Trifolium pratense)",F. graminearum PH-1 MIC Day1,[1],3 µM
same,Z. tritici IPO323 MIC Day 1,[2],0.75 µM
same,Z. tritici IPO323 MIC Day 7,[2],1.75 µM
same,Z. tritici IPO323 MIC Day 14,[2],2.5 µM
same,B. cinerea T4 MIC Day1,Botrytis cinerea T4,3 µM
"PD93.1.1: Fragaria vesca wild-type defensin SEQ ID NO: 588 with N-terminal alanine, expressed in Pichia pastoris (KICEVPSKTFKGLCVKDRNCVVRCHSEGYGNGKCSHVRRQCMCLKICD; N-terminal alanine; listed as Fragaria vesca)",F. graminearum PH-1 MIC Day1,[1],>12 µM
same,Z. tritici IPO323 MIC Day 1,[2],2 µM
same,Z. tritici IPO323 MIC Day 7,[2],5 µM
same,Z. tritici IPO323 MIC Day 14,[2],8 µM
same,B. cinerea T4 MIC Day1,Botrytis cinerea T4,6 µM
"PD94.1.1: Solanum lycopersicum wild-type defensin SEQ ID NO: 593 with N-terminal alanine, expressed in Pichia pastoris (KLCQYHSETFHGVCVTGNNCNRHCQRENFEGGRCHGIRHYRCVCYRTC; N-terminal alanine; listed as Solanum lycopersicum)",F. graminearum PH-1 MIC Day1,[1],>12 µM
same,Z. tritici IPO323 MIC Day 1,[2],>12 µM
same,Z. tritici IPO323 MIC Day 7,[2],>12 µM
same,Z. tritici IPO323 MIC Day 14,[2],>12 µM
same,B. cinerea T4 MIC Day1,Botrytis cinerea T4,>12 µM
"PD95.1.1: Mimulus guttatus wild-type defensin SEQ ID NO: 598 with N-terminal alanine, expressed in Pichia pastoris (RHCESPSHRFKGICVRKSNCAAICQTEGFSSGKCRGFRSRCVCIKHC; N-terminal alanine; listed as Mimulus guttatus)","MIC, in-vitro antifungal activity against F. graminearum",[1],0.75 µM
same,F. graminearum PH-1 MIC Day1,[1],0.75 µM
same,B. cinerea T4 MIC Day1,Botrytis cinerea T4,0.75 µM
"PD96.1.1: Thlaspi arvense wild-type defensin SEQ ID NO: 603 with N-terminal alanine, expressed in Pichia pastoris (RMCESKSHEFKGFCTKWRICRDVCITEGFTDGGCHGVLRHCVCKKPCLLSN; N-terminal alanine; Thlaspi arvense)","MIC, in-vitro antifungal activity against F. graminearum",[1],0.75 µM
same,F. graminearum PH-1 MIC Day1,[1],0.75 µM
same,Z. tritici IPO323 MIC Day 1,[2],2.5 µM
same,Z. tritici IPO323 MIC Day 7,[2],10 µM
same,Z. tritici IPO323 MIC Day 14,[2],>12 µM
same,B. cinerea T4 MIC Day1,Botrytis cinerea T4,6 µM
"PD99.1.1: Theobroma cacao wild-type defensin SEQ ID NO: 616 with N-terminal alanine, expressed in Pichia pastoris (KLCQKRSKTWTGPCIKTKNCDHQCRKWEKAQHGACHWQWPGFACFCYVNC; N-terminal alanine; Theobroma cacao)","MIC, in-vitro antifungal activity against F. graminearum",[1],0.75 µM
same,F. graminearum PH-1 MIC Day1,[1],0.75 µM
same,B. cinerea T4 MIC Day1,Botrytis cinerea T4,0.75 µM
"PD100.1.1: Prunus armeniaca wild-type defensin SEQ ID NO: 620 with N-terminal alanine, expressed in Pichia pastoris (QRGCKQASKSMTTCTAHPECDKKCKGEKAKMGLCRADGPKGKKCWCYMC; N-terminal alanine added; listed as Prunus armeniaca)",F. graminearum PH-1 MIC Day1,[1],6 µM
same,Z. tritici IPO323 MIC Day 1,[2],1 µM
same,Z. tritici IPO323 MIC Day 7,[2],4 µM
same,Z. tritici IPO323 MIC Day 14,[2],8 µM
same,B. cinerea T4 MIC Day1,Botrytis cinerea T4,6 µM
"PD114.1.1: Lupinus albus wild-type defensin SEQ ID NO: 679 with N-terminal alanine, expressed in Pichia pastoris (RTCKSKSQRYKGSCYSDNNCAIICEGEGFTGGKCHGFFCKCWCKRPCL; N-terminal alanine added; listed as Lupinus albus)",F. graminearum PH-1 MIC Day1,[1],>12 µM
same,B. cinerea T4 MIC Day1,Botrytis cinerea T4,>12 µM
"PD120.1.1: Setaria italica wild-type defensin SEQ ID NO: 706 with N-terminal alanine, expressed in Pichia pastoris (DRCETHSRTYKGRCNNHNCWSICITEGNTGGFCKGTLLLKCMCTSEC; N-terminal alanine added; listed as Setaria italica)",F. graminearum PH-1 MIC Day1,[1],12 µM
same,B. cinerea T4 MIC Day1,Botrytis cinerea T4,>12 µM
